ChEMBL document CHEMBL5518215, “Unlocking Antibacterial Potential: Key-Site-Based Regulation of Antibacterial Spectrum of Peptides” (J Med Chem, 2024)

Legend:
[1] = Antimicrobial activity against Salmonella pullorum C7913 assessed as bacterial killing measured after 16 hrs incubation; type: functional, Salmonella enterica subsp. enterica serovar Pullorum; details: Salmonella enterica
Escherichia coli [2] = assay: Antimicrobial activity against Escherichia coli 25922 assessed as absence bacterial growth measured after 18 to 24 hrs incubation by NCCLS method; type: functional; details: time 18-24 hrs
Escherichia coli [3] = assay: Antimicrobial activity against Escherichia coli 25922 assessed as absence bacterial growth measured after 18 to 24 hrs incubation in presence of NaCl by NCCLS method; type: functional; details: time 18-24 hrs
Enterococcus faecalis [4] = assay: Antimicrobial activity against Enterococcus faecalis 29212 assessed as absence bacterial growth measured after 18 to 24 hrs incubation by NCCLS method; type: functional; details: time 18-24 hrs
Escherichia coli [5] = assay: Antimicrobial activity against Escherichia coli 25922 assessed as absence bacterial growth measured after 18 to 24 hrs incubation in presence of MgCl2 by NCCLS method; type: functional; details: time 18-24 hrs
Staphylococcus aureus [6] = assay: Antimicrobial activity against Staphylococcus aureus 29213 assessed as absence bacterial growth measured after 18 to 24 hrs incubation by NCCLS m; type: functional; details: time 18-24 hrs
Salmonella typhimurium [7] = assay: Antimicrobial activity against Salmonella typhimurium C7731 assessed as bacterial killing measured after 16 hrs incubation; type: functional, Salmonella enterica subsp. enterica serovar Typhimurium; details: Salmonella enterica
Acinetobacter baumannii [8] = assay: Antimicrobial activity against Acinetobacter baumannii 1.6769 assessed as bacterial killing measured after 16 hrs incubation; type: functional
Staphylococcus aureus [9] = assay: Antimicrobial activity against Staphylococcus aureus 29213 assessed as absence bacterial growth measured after 18 to 24 hrs incubation by NCCLS method; type: functional; details: time 18-24 hrs
Staphylococcus aureus [10] = assay: Antimicrobial activity against Methicillin-resistant Staphylococcus aureus 43300 assessed as absence bacterial growth measured after 18 to 24 hrs incubation by NCCLS method; type: functional; details: time 18-24 hrs
Listeria monocytogenes [11] = assay: Antimicrobial activity against Listeria monocytogenes 1.10753 assessed as bacterial killing measured after 16 hrs incubation; type: functional
Escherichia coli [12] = assay: Antimicrobial activity against Escherichia coli 25922 assessed as absence bacterial growth measured after 18 to 24 hrs incubation in presence of 50% serum by NCCLS method; type: functional; details: time 18-24 hrs
Escherichia coli [13] = assay: Antimicrobial activity against Escherichia coli 25922 assessed as absence bacterial growth measured after 18 to 24 hrs incubation in presence of FeCl3 by NCCLS method; type: functional; details: time 18-24 hrs
Salmonella typhimurium [14] = assay: Antimicrobial activity against Salmonella typhimurium 14028 assessed as bacterial killing measured after 16 hrs incubation; type: functional, Salmonella enterica subsp. enterica serovar Typhimurium; details: Salmonella enterica
Bacillus cereus [15] = assay: Antimicrobial activity against Bacillus cereus 1.932 assessed as bacterial killing measured after 16 hrs incubation; type: functional
Pseudomonas aeruginosa [16] = assay: Antimicrobial activity against Pseudomonas aeruginosa 27853 assessed as absence bacterial growth measured after 18 to 24 hrs incubation by NCCLS method; type: functional; details: time 18-24 hrs
Escherichia coli [17] = assay: Antimicrobial activity against Escherichia coli K88 assessed as bacterial killing measured after 16 hrs incubation; type: functional
[18] = test system: Staphylococcus epidermidis; assay: Antimicrobial activity against Staphylococcus epidermidis 12228 assessed as bacterial killing measured after 16 hrs incubation; type: functional
Escherichia coli [19] = assay: Antimicrobial activity against Escherichia coli K88 assessed as absence bacterial growth measured after 18 to 24 hrs incubation by NCCLS method; type: functional; details: time 18-24 hrs
[20] = Cytotoxicity against mouse RAW264.7 cells assessed as cell survival rate measured after 8 hrs by MTT assay; type: toxicity, cell-based
Bacillus cereus [21] = assay: Antimicrobial activity against Bacillus cereus 1.932 assessed as absence bacterial growth measured after 18 to 24 hrs incubation by NCCLS method; type: functional; details: time 18-24 hrs
Enterococcus faecalis [22] = assay: Antimicrobial activity against Enterococcus faecalis 29212 assessed as bacterial killing measured after 16 hrs incubation; type: functional
Staphylococcus aureus [23] = assay: Antimicrobial activity against Staphylococcus aureus 25923 assessed as bacterial killing measured after 16 hrs incubation; type: functional
Listeria monocytogenes [24] = assay: Antimicrobial activity against Listeria monocytogenes 1.10753 assessed as absence bacterial growth measured after 18 to 24 hrs incubation by NCCLS method; type: functional; details: time 18-24 hrs
Escherichia coli [25] = assay: Antimicrobial activity against Escherichia coli 25922 assessed as absence bacterial growth measured after 18 to 24 hrs incubation in presence of ZnCl2 by NCCLS method; type: functional; details: time 18-24 hrs
Staphylococcus aureus [26] = assay: Antimicrobial activity against Methicillin-resistant Staphylococcus aureus 43300 assessed as bacterial killing measured after 16 hrs incubation; type: functional
Escherichia coli [27] = assay: Antimicrobial activity against Escherichia coli 25922 assessed as absence bacterial growth measured after 18 to 24 hrs incubation in presence of NH4Cl by NCCLS method; type: functional; details: time 18-24 hrs
Staphylococcus aureus [28] = assay: Antimicrobial activity against Staphylococcus aureus 29213 assessed as bacterial killing measured after 16 hrs incubation; type: functional
Pseudomonas aeruginosa [29] = assay: Antimicrobial activity against Pseudomonas aeruginosa 27853 assessed as bacterial killing measured after 16 hrs incubation; type: functional
Escherichia coli [30] = assay: Antimicrobial activity against Escherichia coli 25922 assessed as absence bacterial growth measured after 18 to 24 hrs incubation in presence of 25% serum by NCCLS method; type: functional; details: time 18-24 hrs
Escherichia coli [31] = assay: Antimicrobial activity against Escherichia coli 25922 assessed as absence bacterial growth measured after 18 to 24 hrs incubation in presence of 12.5% serum by NCCLS method; type: functional; details: time 18-24 hrs
Acinetobacter baumannii [32] = assay: Antimicrobial activity against Acinetobacter baumannii 1.6769 assessed as absence bacterial growth measured after 18 to 24 hrs incubation by NCCLS method; type: functional; details: time 18-24 hrs
Escherichia coli [33] = assay: Antimicrobial activity against Escherichia coli 25922 assessed as bacterial killing measured after 16 hrs incubation; type: functional
Salmonella typhimurium [34] = assay: Antimicrobial activity against Salmonella typhimurium 14028 assessed as absence bacterial growth measured after 18 to 24 hrs incubation by NCCLS method; type: functional, Salmonella enterica subsp. enterica serovar Typhimurium; details: Salmonella enterica, time 18-24 hrs
[35] = Cytotoxicity against porcine IPEC-J2 cells assessed as cell survival rate measured after 8 hrs by MTT assay; type: toxicity, cell-based, Sus scrofa; details: pig
[36] = test system: Staphylococcus epidermidis; assay: Antimicrobial activity against Staphylococcus epidermidis 12228 assessed as absence bacterial growth measured after 18 to 24 hrs incubation by NCCLS method; type: functional; details: time 18-24 hrs
[37] = Hemolytic activity in human RBC at effective concentration at 128 uM measured after 1 hr by microplate reader relative to control; type: toxicity, cell-based, Erythrocyte; details: human red blood cells (erythrocytes), read-out: Activity
[38] = Antimicrobial activity against Salmonella pullorum C7913 assessed as absence bacterial growth measured after 18 to 24 hrs incubation by NCCLS method; type: functional, Salmonella enterica subsp. enterica serovar Pullorum; details: Salmonella enterica, time 18-24 hrs
[39] = Cytotoxicity against human HEK-293T cells assessed as cell survival rate measured after 8 hrs by MTT assay; type: toxicity, cell-based
Erythrocyte = assay: Hemolytic activity in human RBC at effective concentration measured after 1 hr by microplate reader analysis; type: toxicity, cell-based
Escherichia coli [40] = assay: Antimicrobial activity against Escherichia coli 25922 assessed as absence bacterial growth measured after 18 to 24 hrs incubation in presence of KCl by NCCLS method; type: functional; details: time 18-24 hrs
Salmonella typhimurium [41] = assay: Antimicrobial activity against Salmonella typhimurium C7731 assessed as absence bacterial growth measured after 18 to 24 hrs incubation by NCCLS method; type: functional, Salmonella enterica subsp. enterica serovar Typhimurium; details: Salmonella enterica, time 18-24 hrs

## H-AKLWLKGGKLWLKGGKLWLKG-NH2
[1]
  MBC: 2 µM
Escherichia coli [2]
  MIC: 4 µM
Escherichia coli [3]
  MIC: > 32 µM
Enterococcus faecalis [4]
  MIC: > 32 µM
Escherichia coli [5]
  MIC: 16 µM
Staphylococcus aureus [6]
  MIC: > 32 µM
Salmonella typhimurium [7]
  MBC: 32 µM
Acinetobacter baumannii [8]
  MBC: 16 µM
Staphylococcus aureus [9]
  MIC: > 32 µM
Staphylococcus aureus [10]
  MIC: > 32 µM
Listeria monocytogenes [11]
  MBC: > 32 µM
Escherichia coli [12]
  MIC: > 32 µM
Escherichia coli [13]
  MIC: 4 µM
Salmonella typhimurium [14]
  MBC: 16 µM
Bacillus cereus [15]
  MBC: > 32 µM
Pseudomonas aeruginosa [16]
  MIC: > 32 µM
Escherichia coli [17]
  MBC: 1 µM
[18]
  MBC: > 32 µM
Escherichia coli [19]
  MIC: 1 µM
[20]
  IC50 at 8 h: > 64 µM
Bacillus cereus [21]
  MIC: > 32 µM
Enterococcus faecalis [22]
  MBC: > 32 µM
Staphylococcus aureus [23]
  MBC: > 32 µM
Listeria monocytogenes [24]
  MIC: > 32 µM
Escherichia coli [25]
  MIC: 4 µM
Staphylococcus aureus [26]
  MBC: > 32 µM
Escherichia coli [27]
  MIC: 4 µM
Staphylococcus aureus [28]
  MBC: > 32 µM
Pseudomonas aeruginosa [29]
  MBC: > 32 µM
Escherichia coli [30]
  MIC: > 32 µM
Escherichia coli [31]
  MIC: > 32 µM
Acinetobacter baumannii [32]
  MIC: 16 µM
Escherichia coli [33]
  MBC: 8 µM
Salmonella typhimurium [34]
  MIC: 4 µM
[35]
  IC50 at 8 h: > 64 µM
[36]
  MIC: > 32 µM
[37]
  hemolysis at 1 h, 128 µM: < 10%
[38]
  MIC: 2 µM
[39]
  IC50 at 8 h: > 64 µM
Erythrocyte
  HC10: > 128 µM
Escherichia coli [40]
  MIC: 4 µM
Salmonella typhimurium [41]
  MIC: 16 µM

## H-CKLWLKGGKLWLKGGKLWLKG-NH2
[1]
  MBC: 2 µM
Escherichia coli [2]
  MIC: > 32 µM
Escherichia coli [3]
  MIC: > 32 µM
Enterococcus faecalis [4]
  MIC: > 32 µM
Escherichia coli [5]
  MIC: > 32 µM
Staphylococcus aureus [6]
  MIC: > 32 µM
Salmonella typhimurium [7]
  MBC: > 32 µM
Acinetobacter baumannii [8]
  MBC: > 32 µM
Staphylococcus aureus [9]
  MIC: > 32 µM
Staphylococcus aureus [10]
  MIC: > 32 µM
Listeria monocytogenes [11]
  MBC: > 32 µM
Escherichia coli [12]
  MIC: > 32 µM
Escherichia coli [13]
  MIC: > 32 µM
Salmonella typhimurium [14]
  MBC: > 32 µM
Bacillus cereus [15]
  MBC: > 32 µM
Pseudomonas aeruginosa [16]
  MIC: > 32 µM
Escherichia coli [17]
  MBC: 2 µM
[18]
  MBC: > 32 µM
Escherichia coli [19]
  MIC: 2 µM
[20]
  IC50 at 8 h: 60.1 µM
Bacillus cereus [21]
  MIC: > 32 µM
Enterococcus faecalis [22]
  MBC: > 32 µM
Staphylococcus aureus [23]
  MBC: > 32 µM
Listeria monocytogenes [24]
  MIC: > 32 µM
Escherichia coli [25]
  MIC: > 32 µM
Staphylococcus aureus [26]
  MBC: > 32 µM
Escherichia coli [27]
  MIC: > 32 µM
Staphylococcus aureus [28]
  MBC: > 32 µM
Pseudomonas aeruginosa [29]
  MBC: > 32 µM
Escherichia coli [30]
  MIC: > 32 µM
Escherichia coli [31]
  MIC: 32 µM
Acinetobacter baumannii [32]
  MIC: > 32 µM
Escherichia coli [33]
  MBC: > 32 µM
Salmonella typhimurium [34]
  MIC: > 32 µM
[35]
  IC50 at 8 h: 14.3 µM
[36]
  MIC: > 32 µM
[37]
  hemolysis at 1 h, 128 µM: < 10%
[38]
  MIC: 2 µM
[39]
  IC50 at 8 h: > 64 µM
Erythrocyte
  HC10: > 128 µM
Escherichia coli [40]
  MIC: > 32 µM
Salmonella typhimurium [41]
  MIC: > 32 µM

## H-FKLWLKGGKLWLKGGKLWLKG-NH2
[1]
  MBC: 2 µM
Escherichia coli [2]
  MIC: 4 µM
Escherichia coli [3]
  MIC: > 32 µM
Enterococcus faecalis [4]
  MIC: > 32 µM
Escherichia coli [5]
  MIC: > 32 µM
Staphylococcus aureus [6]
  MIC: > 32 µM
Salmonella typhimurium [7]
  MBC: > 32 µM
Acinetobacter baumannii [8]
  MBC: 8 µM
Staphylococcus aureus [9]
  MIC: > 32 µM
Staphylococcus aureus [10]
  MIC: 16 µM
Listeria monocytogenes [11]
  MBC: > 32 µM
Escherichia coli [12]
  MIC: > 32 µM
Escherichia coli [13]
  MIC: 2 µM
Salmonella typhimurium [14]
  MBC: 16 µM
Bacillus cereus [15]
  MBC: > 32 µM
Pseudomonas aeruginosa [16]
  MIC: 32 µM
Escherichia coli [17]
  MBC: 1 µM
[18]
  MBC: > 32 µM
Escherichia coli [19]
  MIC: 1 µM
[20]
  IC50 at 8 h: > 64 µM
Bacillus cereus [21]
  MIC: > 32 µM
Enterococcus faecalis [22]
  MBC: > 32 µM
Staphylococcus aureus [23]
  MBC: > 32 µM
Listeria monocytogenes [24]
  MIC: > 32 µM
Escherichia coli [25]
  MIC: 8 µM
Staphylococcus aureus [26]
  MBC: > 32 µM
Escherichia coli [27]
  MIC: 8 µM
Staphylococcus aureus [28]
  MBC: 32 µM
Pseudomonas aeruginosa [29]
  MBC: 32 µM
Escherichia coli [30]
  MIC: > 32 µM
Escherichia coli [31]
  MIC: 16 µM
Acinetobacter baumannii [32]
  MIC: 8 µM
Escherichia coli [33]
  MBC: 8 µM
Salmonella typhimurium [34]
  MIC: 4 µM
[35]
  IC50 at 8 h: 20 µM
[36]
  MIC: > 32 µM
[37]
  hemolysis at 1 h, 128 µM: < 10%
[38]
  MIC: 2 µM
[39]
  IC50 at 8 h: > 64 µM
Erythrocyte
  HC10: 128 µM
Escherichia coli [40]
  MIC: 8 µM
Salmonella typhimurium [41]
  MIC: > 32 µM
